Laboratory results taken from patent US20250122191A1, “COMPOUNDS AS BCL-2 INHIBITORS” (Fochon Biosciences, Ltd, priority 2021, published 2025).
Read-outs that look alike come from different tables or passages of the source.

Legend:
Assay type in all cases: cell-based
[1] = system: RS4;11-BCL-2 F104L cells; assay: Cell proliferation assay (MTS), RS4;11-BCL-2 F104L engineered cells; conditions: 120 h, read-out: RS4, 11 BCL2-F104L IC50
Source text: MTS testing kit was purchased from Promega (Madison, WI, USA). The RPMI-1640, Fetal bovine serum and Penicillin-Streptomycin were purchased from BI (Biological Industries, Beit Haemek, Israel). Puromycin was purchased from Beyotime (shanghai, China). Dimethyl sulfoxide (DMSO) was purchased from Sigma (St. Louis., MO, USA). RS4;11-BCL-2 G101V (Cobioer Lot. #: CBD2021063013P4), RS4;11-BCL-2 D103E (Cobioer Lot. #: CBD2021063013P4), RS4;11-BCL-2 D103Y (Cobioer Lot. #: CBD2022012101P4) and RS4;11-BCL-2 F104L (Cobioer Lot. #: CBD2021063014P4) cells were cultured in RPMI1640 supplemented with 1 ug/mL puromycin, 100 U/mL Penicillin-Streptomycin and 10% FBS.
To investigate whether a compound is able to inhibit the activity of BCL-2 mutation in cells, a mechanism-based assay using engineered cell lines stably overexpressing BCL-2 mutation (RS4;11-BCL-2 G101V, RS4;11-BCL-2 D103E, RS4;11-BCL-2 D103Y, and RS4;11-BCL-2 F104L) was developed. In this assay, the inhibition of BCL-2 mutation was reflected by the inhibition of cell proliferation of engineered RS4;11 cells. Cells were plated into 96-well plates at optimized cell density (RS4;11-BCL-2 G101V: 5000 cells/well; RS4;11-BCL-2 D103E: 7500 cells/well; RS4;11-BCL-2 D103Y: 7500 cells/well; RS4;11-BCL-2 F104L: 5000 cells/well). Plates were incubated at 37° C., with 5% CO2 for 4 h (RS4;11-BCL-2 G101V, RS4;11-BCL-2 F104L) and 24 h (RS4;11-BCL-2 D103E, RS4;11-BCL-2 D103Y), respectively. Compounds were serially diluted and added to the plates with the final concentrations of 10000, 3333.3, 1111.1, 370.4, 123.5, 41.2, 13.7, 4.6 and 1.5 nM. Plates were incubated at 37° C., with 5% CO2 for 120 h (RS4; 11-BCL-2 G101V, RS4; 11-BCL-2 F104L) and 72 h (RS4;11-BCL-2 D103E, RS4;11-BCL-2 D103Y), respectively. 20 μl MTS was added into each well and the plates were incubated at 37° C., with 5% CO2 exactly for 2 h. The absorbance was measured by a microplate reader at 490 nm. IC50 values were calculated using GraphPad Prism 8.0 software.

[2] = system: RS4;11-BCL-2 G101V cells; assay: Cell proliferation assay (MTS), RS4;11-BCL-2 G101V engineered cells; conditions: 120 h, read-out: RS4, 11 BCL2-G101V IC50
Method in brief: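 Proliferation IC50 in RS4;11 lines engineered with BCL-2 mutations, measured by MTS at 490 nm after 72 h (D103E, D103Y) or 120 h (G101V, F104L) compound treatment at 37 °C.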

[3] = system: Toledo cells; assay: Cell proliferation assay (MTS), Toledo cells; conditions: 72 h
Method in brief: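 Toledo cells (RPMI-1640, 10% FBS) seeded at 30000 cells/well, rested 4 h, then exposed 72 h at 37 °C, 5% CO2 to compound at nine final concentrations, 1.5–10000 nM. Viability by MTS (2 h), absorbance at 490 nm. IC50 from the concentration-response.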

Row | IC50 [1] [nM] | IC50 [2] [nM] | IC50 ([1]; Homo sapiens) [nM] | IC50 ([2]; Homo sapiens) [nM] | SMILES | IC50 [3] [nM] | IC50 ([3]; Homo sapiens) [nM]
1 | 1 | 1 |  |  | CC(C)c1ccccc1[C@@H]1CN(Cc2ccc(Cl)cc2)CCN1C1CC2(CCN(c3ccc(C(=O)NS(=O)(=O)c4cnc(NCC5CCC(C)(O)CC5)c([N+](=O)[O-])c4)c(Oc4cnc5[nH]cc(F)c5c4)c3)CC2)C1 (stereo partly drawn) [Example 229, 4-(2-((R)-4-(4-chlorobenzyl)-2-(2-isopropylphenyl)piperazin-1-yl)-7-azaspiro[3.5]nonan-7-yl)-2-((3-fluoro-1H-pyrrolo[2,3-b]pyridin-5-yl)oxy)-N-((6-((((1r,4r)-4-hydroxy-4-methylcyclohexyl)methyl)amino)-5-nitropyridin-3-yl)sulfonyl)benzamide] | 1 | 
2 |  |  | 2 | 1 | CC(C)c1ccccc1[C@@H]1CN(Cc2ccnc(Cl)c2)CCN1C1CC2(CCN(c3ccc(C(=O)NS(=O)(=O)c4cnc(NC[C@H]5CC[C@](C)(O)CC5)c([N+](=O)[O-])c4)c(Oc4cnc5[nH]cc(F)c5c4)c3)CC2)C1 [Example 358, 4-(2-((R)-4-((2-chloropyridin-4-yl)methyl)-2-(2-isopropylphenyl)piperazin-1-yl)-7-azaspiro[3.5]nonan-7-yl)-2-((3-fluoro-1H-pyrrolo[2,3-b]pyridin-5-yl)oxy)-N-((6-((((1r,4r)-4-hydroxy-4-methylcyclohexyl)methyl)amino)-5-nitropyridin-3-yl)sulfonyl)benzamide] |  | 1
3 |  |  | 1 | 1 | CCOc1nc2[nH]cc(F)c2cc1Oc1cc(N2CCC3(CC2)CC(N2CCN(Cc4ccc(C5CC5)c(OC)c4)C[C@H]2c2ccccc2C(C)C)C3)ccc1C(=O)NS(=O)(=O)c1cnc(NC[C@H]2CC[C@](C)(O)CC2)c([N+](=O)[O-])c1 [Example 6, 4-(2-((R)-4-(4-cyclopropyl-3-methoxybenzyl)-2-(2-isopropylphenyl)piperazin-1-yl)-7-azaspiro[3.5]nonan-7-yl)-2-((6-ethoxy-3-fluoro-1H-pyrrolo[2,3-b]pyridin-5-yl)oxy)-N-((6-((((1r,4r)-4-hydroxy-4-methylcyclohexyl)methyl)amino)-5-nitropyridin-3-yl)sulfonyl)benzamide] |  | 1
4 |  |  | 1 |  | COc1ccc(CN2CCN(C3CC4(CCN(c5ccc(C(=O)NS(=O)(=O)c6cnc(NC[C@H]7CC[C@](C)(O)CC7)c([N+](=O)[O-])c6)c(Oc6cc7c(F)c[nH]c7nc6OC)c5)CC4)C3)[C@H](c3ccccc3C(C)C)C2)cc1F [Example 97, 4-(2-((R)-4-(3-fluoro-4-methoxybenzyl)-2-(2-isopropylphenyl)piperazin-1-yl)-7-azaspiro[3.5]nonan-7-yl)-2-((3-fluoro-6-methoxy-1H-pyrrolo[2,3-b]pyridin-5-yl)oxy)-N-((6-((((1r,4r)-4-hydroxy-4-methylcyclohexyl)methyl)amino)-5-nitropyridin-3-yl)sulfonyl)benzamide] |  | 1
5 |  |  | 3 |  | COc1nc2[nH]cc(F)c2cc1Oc1cc(N2CCC3(CC2)CC(N2CCN(Cc4ccnc(Cl)c4)C[C@H]2c2ccccc2C(C)C)C3)ccc1C(=O)NS(=O)(=O)c1cnc(NC[C@H]2CC[C@](C)(O)CC2)c([N+](=O)[O-])c1 [Example 357, 4-(2-((R)-4-((2-chloropyridin-4-yl)methyl)-2-(2-isopropylphenyl)piperazin-1-yl)-7-azaspiro[3.5]nonan-7-yl)-2-((3-fluoro-6-methoxy-1H-pyrrolo[2,3-b]pyridin-5-yl)oxy)-N-((6-((((1r,4r)-4-hydroxy-4-methylcyclohexyl)methyl)amino)-5-nitropyridin-3-yl)sulfonyl)benzamide] |  | 1
